Reference: PubChem BioAssay (NCI)
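Exposure lasted 48 hours, with cells grown in 96-well plates and compounds tested at five concentrations. Abbreviation: GI50, concentration required for 50% inhibition of growth. The concentration for full growth arrest is given as TGI.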

How the values were obtained:
Test in all cases: NCI-60 cell line screen, 48 h
NCI-H226 lung = tested on: NCI-H226 lung
NCI-H23 lung = tested on: NCI-H23 lung
NCI-H460 lung = tested on: NCI-H460 lung
NCI-H522 lung = tested on: NCI-H522 lung
NCI/ADR-RES ovarian = tested on: NCI/ADR-RES ovarian
OVCAR-3 ovarian = tested on: OVCAR-3 ovarian
OVCAR-4 ovarian = tested on: OVCAR-4 ovarian
OVCAR-5 ovarian = tested on: OVCAR-5 ovarian
OVCAR-8 ovarian = tested on: OVCAR-8 ovarian
PC-3 prostate = tested on: PC-3 prostate
RPMI-8226 leukemia = tested on: RPMI-8226 leukemia
RXF 393 renal = tested on: RXF 393 renal
SF-268 CNS = tested on: SF-268 CNS
SF-295 CNS = tested on: SF-295 CNS
SF-539 CNS = tested on: SF-539 CNS
SK-MEL-2 melanoma = tested on: SK-MEL-2 melanoma
SK-MEL-28 melanoma = tested on: SK-MEL-28 melanoma
SK-MEL-5 melanoma = tested on: SK-MEL-5 melanoma
SK-OV-3 ovarian = tested on: SK-OV-3 ovarian
SN12C renal = tested on: SN12C renal
SNB-19 CNS = tested on: SNB-19 CNS
SNB-75 CNS = tested on: SNB-75 CNS
SW-620 colon = tested on: SW-620 colon
T-47D breast = tested on: T-47D breast
TK-10 renal = tested on: TK-10 renal
U251 CNS = tested on: U251 CNS
UACC-257 melanoma = tested on: UACC-257 melanoma
UACC-62 melanoma = tested on: UACC-62 melanoma
UO-31 renal = tested on: UO-31 renal

**Q.** How did the TGI (NCI-H226 lung) turn out when `COc1cc(/C=C/C(=O)c2cc(OC)c(OC)c(OC)c2)ccc1OCc1ccccc1` was run?
**A.** > 100 µM

**Q.** What about the GI50 (NCI-H23 lung) of the same molecule?
**A.** 2.37 µM

**Q.** What about the TGI (NCI-H23 lung) of the same molecule?
**A.** 7.23 µM

**Q.** And the GI50 (NCI-H460 lung)?
**A.** 2.33 µM

**Q.** And the TGI (NCI-H460 lung)?
**A.** 6.16 µM

**Q.** And the GI50 (NCI-H522 lung)?
**A.** 1.45 µM

**Q.** And the TGI (NCI-H522 lung)?
**A.** 3.43 µM

**Q.** What about the GI50 (NCI/ADR-RES ovarian) of the same molecule?
**A.** 2.82 µM

**Q.** What about the TGI (NCI/ADR-RES ovarian) of the same molecule?
**A.** 9.4 µM

**Q.** And the GI50 (OVCAR-3 ovarian)?
**A.** 3.75 µM

**Q.** What about the TGI (OVCAR-3 ovarian) of the same molecule?
**A.** > 100 µM

**Q.** What about the GI50 (OVCAR-4 ovarian) of the same molecule?
**A.** 2.84 µM

**Q.** What about the TGI (OVCAR-4 ovarian) of the same molecule?
**A.** > 100 µM

**Q.** What about the GI50 (OVCAR-5 ovarian) of the same molecule?
**A.** 2.67 µM

**Q.** What about the TGI (OVCAR-5 ovarian) of the same molecule?
**A.** 13.7 µM

**Q.** And the GI50 (OVCAR-8 ovarian)?
**A.** 2.16 µM

**Q.** What about the TGI (OVCAR-8 ovarian) of the same molecule?
**A.** 5.8 µM

**Q.** And the GI50 (PC-3 prostate)?
**A.** 3.16 µM

**Q.** And the TGI (PC-3 prostate)?
**A.** > 100 µM

**Q.** And the GI50 (RPMI-8226 leukemia)?
**A.** 1.9 µM

**Q.** And the TGI (RPMI-8226 leukemia)?
**A.** > 100 µM

**Q.** And the GI50 (RXF 393 renal)?
**A.** 2.18 µM

**Q.** What about the TGI (RXF 393 renal) of the same molecule?
**A.** 6.07 µM

**Q.** And the GI50 (SF-268 CNS)?
**A.** 3.65 µM

**Q.** And the TGI (SF-268 CNS)?
**A.** > 100 µM

**Q.** What about the GI50 (SF-295 CNS) of the same molecule?
**A.** 3.16 µM

**Q.** What about the TGI (SF-295 CNS) of the same molecule?
**A.** > 100 µM

**Q.** And the GI50 (SF-539 CNS)?
**A.** 2.04 µM

**Q.** And the TGI (SF-539 CNS)?
**A.** 4.28 µM

**Q.** What about the GI50 (SK-MEL-2 melanoma) of the same molecule?
**A.** 3.7 µM

**Q.** What about the TGI (SK-MEL-2 melanoma) of the same molecule?
**A.** 25.3 µM

**Q.** What about the GI50 (SK-MEL-28 melanoma) of the same molecule?
**A.** 3.79 µM

**Q.** What about the TGI (SK-MEL-28 melanoma) of the same molecule?
**A.** 30.6 µM

**Q.** And the GI50 (SK-MEL-5 melanoma)?
**A.** 2.65 µM

**Q.** And the TGI (SK-MEL-5 melanoma)?
**A.** 11.1 µM

**Q.** And the GI50 (SK-OV-3 ovarian)?
**A.** 4.2 µM

**Q.** And the TGI (SK-OV-3 ovarian)?
**A.** > 100 µM

**Q.** And the GI50 (SN12C renal)?
**A.** 1.94 µM

**Q.** What about the TGI (SN12C renal) of the same molecule?
**A.** 6.59 µM

**Q.** What about the GI50 (SNB-19 CNS) of the same molecule?
**A.** 2.64 µM

**Q.** And the TGI (SNB-19 CNS)?
**A.** 8.69 µM

**Q.** What about the GI50 (SNB-75 CNS) of the same molecule?
**A.** 1.7 µM

**Q.** What about the TGI (SNB-75 CNS) of the same molecule?
**A.** 3.62 µM

**Q.** What about the GI50 (SW-620 colon) of the same molecule?
**A.** 3.61 µM

**Q.** What about the TGI (SW-620 colon) of the same molecule?
**A.** > 100 µM

**Q.** And the GI50 (T-47D breast)?
**A.** 2.96 µM

**Q.** What about the TGI (T-47D breast) of the same molecule?
**A.** > 100 µM

**Q.** And the GI50 (TK-10 renal)?
**A.** 4.97 µM

**Q.** And the TGI (TK-10 renal)?
**A.** > 100 µM

**Q.** And the GI50 (U251 CNS)?
**A.** 2.36 µM

**Q.** And the TGI (U251 CNS)?
**A.** 7.5 µM

**Q.** And the GI50 (UACC-257 melanoma)?
**A.** 3.29 µM

**Q.** And the TGI (UACC-257 melanoma)?
**A.** 68.9 µM

**Q.** What about the GI50 (UACC-62 melanoma) of the same molecule?
**A.** 1.82 µM

**Q.** And the TGI (UACC-62 melanoma)?
**A.** 4.51 µM

**Q.** And the GI50 (UO-31 renal)?
**A.** 2.2 µM

**Q.** What about the TGI (UO-31 renal) of the same molecule?
**A.** > 100 µM
